Results: PubChem BioAssay AID1259321 (Sanford-Burnham Center for Chemical Genomics, 2017)
“And” between values parts separate entries of the source, which are not always exact repeats. Identical values can stand only once. The source made the active and inactive calls.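 The calls were made as follows: active = half-maximal concentration for changing protein binding to DNA, from the fitted dose curve, below 10 micromolar; inactive = the rest.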

What follows are compounds tested against Nuclear receptor subfamily 1 group D member 1 (Homo sapiens) (UniProt P20393) (assay: Rev-erbα–DNA interaction modulators – biochemical, FITC-DNA, fluorescence polarization, dose response (AID 1259321)). Details: Rev-erb alpha-FITC-DNA binding.
Nuclear receptor subfamily 1 group D member 1 (Homo sapiens), sequence (P20393 whole entry, looked up): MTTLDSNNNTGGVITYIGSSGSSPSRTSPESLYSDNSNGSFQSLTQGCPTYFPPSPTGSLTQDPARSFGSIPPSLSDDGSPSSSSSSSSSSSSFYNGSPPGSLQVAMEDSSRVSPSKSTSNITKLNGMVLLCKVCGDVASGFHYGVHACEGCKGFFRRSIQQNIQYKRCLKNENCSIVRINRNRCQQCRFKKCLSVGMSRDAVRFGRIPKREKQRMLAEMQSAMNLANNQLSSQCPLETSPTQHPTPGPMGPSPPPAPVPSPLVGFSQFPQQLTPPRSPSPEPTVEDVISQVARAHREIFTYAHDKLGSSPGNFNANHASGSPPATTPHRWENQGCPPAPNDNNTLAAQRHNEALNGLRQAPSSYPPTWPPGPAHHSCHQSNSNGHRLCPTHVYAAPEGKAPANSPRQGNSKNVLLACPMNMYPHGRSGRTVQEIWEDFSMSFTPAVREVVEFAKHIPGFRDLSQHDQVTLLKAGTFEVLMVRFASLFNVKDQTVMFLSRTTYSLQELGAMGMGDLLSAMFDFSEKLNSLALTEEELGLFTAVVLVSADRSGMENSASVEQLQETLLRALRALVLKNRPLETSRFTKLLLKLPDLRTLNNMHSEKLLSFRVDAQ
In the case of `C/C=C(/C(=C/C)c1ccc(O)cc1)c1ccc(O)cc1`, the IC50 is reported as > 40 µM (inactive). For `Cc1nc(NC(=O)c2cncc(Br)c2)ccc1Br`, the IC50 was “inactive”. Work on `Cc1ccc2nc(N3CCN(c4cccc(C)c4C)CC3)c3nnnn3c2c1` yielded an IC50 of 7.32 µM. For `Cc1cc(C)c(NC(=O)CSc2nc3ncc(Br)cc3[nH]2)c(C)c1`, the IC50 was > 40 µM (inactive). For `COc1ccccc1CC1(C)C(=O)Nc2ccc(OC(F)(F)F)cc21` (stereo not given), the IC50 was > 40 µM (inactive). With `O=C(Nc1ccccc1C(F)(F)F)OCCN1C(=O)CCC12CCC(c1ccccc1)CC2` (stereo not given) the IC50 was 7.99 µM. With `CCCC1(c2ccccc2)NC(=O)N(CC(=O)Nc2sc(-c3ccccc3)cc2C(=O)OCC)C1=O` (stereo not given) the IC50 was “inactive”. For `COc1cc2c3nnc(-c4ccc(F)cc4)c-3cn(Cc3ccccc3F)c2cc1OC`, the IC50 was 1.98 µM. `COC(=O)Cn1c(=NC(=O)c2ccc(OC)c(OC)c2)sc2cc(OC)ccc21` was tested, and the IC50 was > 40 µM (inactive). `COCCCn1c(C(=O)NCCC2=CCCCC2)cc2c(=O)n3cccc(C)c3nc21` was tested, and the IC50 was 7.78 µM. For `CN1/C(=C\C=C2/C(=O)Oc3ccccc3C2=O)C(C)(C)c2ccccc21`, the IC50 was 4.74 µM. With `Cc1nn(-c2ccc(Cl)c(Cl)c2)c(=O)c2ccccc12` the IC50 was 5.16 µM. Compound `O=C(Nc1nc(=O)c2ccccc2s1)c1ccc(F)cc1` has an IC50 of 1.57 µM. In the case of `CC(=O)c1ccc(S(=O)(=O)N2CCN(c3nc4c(C)c(C)ccc4cc3C#N)CC2)cc1`, the IC50 is reported as 4.57 µM. With `COc1ccc(C(=O)/C(C#N)=N/Nc2ccc([N+](=O)[O-])cc2)cc1` the IC50 was > 40 µM (inactive). For `CCOC(=O)CSc1nc2cc3c(cc2cc1C#N)OCO3`, the IC50 was > 40 µM (inactive). In the case of `Cn1c(=O)c(NCCc2ccccc2)c2c3c(cccc31)C(=O)c1ccccc1-2`, the IC50 is reported as “inactive”. With `COc1cc(C(=O)NCc2ccc(-c3nc4ccccc4s3)cc2)cc(OC)c1OC` the IC50 was > 40 µM (inactive). In the case of `Fc1cccc2sc(Nc3nc4c(F)cccc4s3)nc12`, the IC50 is reported as 4.6 µM. Compound `COC(=O)c1cccc(Cn2ccc3ccc(-c4ccc5ccn(C(=O)C6CCCCC6)c5c4)cc32)c1` has an IC50 of 7.14 µM. For `COc1ccc(-c2c(C)nc(N)nc2-c2ccc(OCc3ccc(C)cc3)cc2O)cc1OC`, the IC50 was > 40 µM (inactive). With `CCN(CC)S(=O)(=O)c1ccc(C(=O)OCCN2C(=O)c3cccc4c(N5CCOCC5)ccc(c34)C2=O)cc1` the IC50 was > 40 µM (inactive). With `Cc1nc(SCC(=O)Nc2ccccc2)c2oc3ccccc3c2n1` the IC50 was “inactive”. Work on `Cc1ccc(C(=O)CSc2nc3ccccc3c(=O)n2-c2ccccc2)s1` yielded an IC50 of 7.75 µM. For `COc1cccc(-n2nnnc2SCC(=O)Nc2ccc3c(c2)OCCO3)c1`, the IC50 was “inactive”. `Cc1ccc(/C=C/c2ccc(N(C)C)cc2)[n+](C)c1` was tested, and the IC50 was 9.09 µM. In the case of `CC1(Cc2ccccc2C#N)C(=O)Nc2ccc(-c3ccccc3)cc21` (stereo not given), the IC50 is reported as 6.27 µM. `Cc1nc(N2CCN(c3ccccn3)CC2)c2c(C)c(C(=O)N3CCN(c4cccc(Cl)c4)CC3)sc2n1` was tested, and the IC50 was > 40 µM (inactive). `N#CCCN(CCC#N)S(=O)(=O)c1ccc(C(=O)Nc2nc(-c3ccccc3)c(C(=O)c3ccccc3)s2)cc1` was tested, and the IC50 was > 40 µM (inactive). With `Cc1cc(C)cc(N2CC(O)=C(c3nc4ccccc4c(=O)[nH]3)C2=N)c1` the IC50 was 2.99 µM. Compound `Cc1ccccc1CNc1ncnc2cc(Cl)ccc12` has an IC50 of 0.98 µM. In the case of `CC(=O)c1cccc(NC(=O)c2csc(-n3nc(C)cc3C(F)(F)F)n2)c1`, the IC50 is reported as 3.61 µM. In the case of `COCCn1c(=NC(=O)c2ccc3c(c2)OCCO3)sc2cc(S(N)(=O)=O)ccc21`, the IC50 is reported as 4.94 µM. Compound `Nc1nc(-c2cccs2)c(-c2cccs2)s1` has an IC50 of 1.43 µM. For `CC(=O)Nc1ccc(O)c(-c2nc3ccccc3s2)c1`, the IC50 was “inactive”. For `N#Cc1c(-c2ccc(F)cc2)cc(C2CC2)nc1SCC(=O)c1cccs1`, the IC50 was > 40 µM (inactive). `CCOC(=O)c1c(C2CC2)csc1NC(=O)COC(=O)c1cnc(Cl)c(Cl)c1` was tested, and the IC50 was “inactive”. For `Cc1cc(C)c2c(N)c(C(=O)N/N=C/c3cccs3)sc2n1`, the IC50 was 5.4 µM. With `COc1cccc(OC)c1-c1nn2c(-c3cc(-c4ccccc4)n[nH]3)nnc2s1` the IC50 was “inactive”. With `Cc1cc(C)c(NC(=O)CSc2nc3ncc(Br)cc3[nH]2)c(Cl)c1` the IC50 was 6.22 µM. In the case of `CN1C(=O)C(=Cc2ccc(N3CCCCCC3)o2)C(=O)N(C)C1=S`, the IC50 is reported as “inactive”. `O=c1c2ccccc2ncn1-c1ccc(Cl)c(Cl)c1` was tested, and the IC50 was > 40 µM (inactive). For `O=C(CCCC(=O)OCC(=O)c1cccs1)Nc1ccc(Oc2ccccc2)cc1`, the IC50 was “inactive”. `COc1ccc(Br)cc1-c1nc2c(c(=O)[nH]c(=O)n2Cc2ccccc2)n1C` was tested, and the IC50 was “inactive”. With `N#Cc1c(-c2cccs2)cc(C2CC2)nc1SCC(N)=O` the IC50 was 1.35 µM. With `CCCCN1C(=O)/C(=C/C=C2/CC(C)(C)CN2C)SC1=S` the IC50 was > 40 µM (inactive). In the case of `COc1ccc(-c2c(C#N)c(N)nc(Sc3ccc(Cl)cc3)c2C#N)cc1`, the IC50 is reported as 3.66 µM. For `c1cnc(SCC2CCCCC2)c(-c2nc3ccccc3[nH]2)c1`, the IC50 was 7.2 µM. With `O=c1c2ccccc2nc2sc3ccccc3n12` the IC50 was > 40 µM (inactive). `Cc1cc(C)c2nc(SCC(=O)N(C)C3CCS(=O)(=O)C3)cc(C)c2c1` (stereo not given) gave an IC50 of 6.34 µM. Compound `O=C(Cc1ccc(Cl)cc1)c1c[nH]c(C(=O)NCc2cccnc2)c1` has an IC50 of 2.51 µM. For `CCSC1=N/C(=C\C=C2/Oc3ccccc3N2CC)C(=O)S1`, the IC50 was 9.41 µM. `Cc1cc(C)cc(OCc2nc3ncc(Br)cc3[nH]2)c1` showed an IC50 of 2.43 µM. `O=[N+]([O-])c1cc(-c2cnc3ccccc3n2)ccc1Cl` showed an IC50 of 3.68 µM. For `CCC(c1ccc(O)cc1)C(CC)c1ccc(O)cc1` (stereo not given), the IC50 was “inactive”. In the case of `C[n+]1ccc(/C=C/c2c[nH]c3ccc(F)cc23)cc1`, the IC50 is reported as > 40 µM (inactive). For `COc1ccc2c(C)cc(SCC(=O)NC3CCCCC3)nc2c1`, the IC50 was > 40 µM (inactive). `Cc1cc(C)c2nc(SCC(=O)N3CC(=O)Nc4ccccc43)c(C#N)cc2c1` showed an IC50 of 7.22 µM. `O=C(OCC(=O)c1c[nH]c2ccccc12)c1cc(Br)ccc1O` was tested, and the IC50 was 5.27 µM. `Cc1ccc(CNC(=O)c2cc3c(=O)n(C)c4ccccc4c3n2C)cc1` was tested, and the IC50 was “inactive”. `CCOc1ccc(S(=O)(=O)Nc2nc3ccccc3nc2-n2ccc(=NC(=O)c3ccccc3C)cc2)cc1` was tested, and the IC50 was > 40 µM (inactive). With `CC(C)Nc1nc(-c2cccnc2)nc(-c2ccc(Cl)cc2)c1C#N` the IC50 was > 40 µM (inactive). For `Cc1cc(=O)oc2cc(NC(=O)c3cccc(F)c3)ccc12`, the IC50 was 1.02 µM. In the case of `COC(=O)c1ccccc1NC(=O)c1cn(-c2ccc(C)c(C)c2)c(=O)c2ccccc12`, the IC50 is reported as “inactive”. In the case of `COC1C(CO)OC(n2c3c(Cl)cccc3c3c4c(c5c6cccc(Cl)c6[nH]c5c32)C(=O)NC4=O)C(O)C1O` (stereo not given), the IC50 is reported as “inactive”. For `O=C(NCc1ccc2c(c1)OCO2)C1CCC(CNS(=O)(=O)c2cccc3nsnc23)CC1` (stereo not given), the IC50 was > 40 µM (inactive). `COc1ccccc1-c1ccc2c(c1)C(C)(Cc1cccc(C#N)c1)C(=O)N2` (stereo not given) was tested, and the IC50 was > 40 µM (inactive). `C[n+]1c2cc(N)ccc2cc2ccc(N)cc21` was tested, and the IC50 was 2.68 µM and 8.02 µM. Work on `CC(C)Cc1nc2sc3c(SCC(N)=O)ncnc3c2c2c1CCC2` yielded an IC50 of 3.65 µM. Work on `Cc1ccc(Oc2nccc(-c3ccc(Cl)cc3)n2)cc1` yielded an IC50 of 7.31 µM. For `Cc1ccc(-n2c(SCC(=O)Nc3cccc(S(=O)(=O)NC4=NCCCCC4)c3)nc3ccccc3c2=O)cc1`, the IC50 was “inactive”. `CC1(Cc2ccccc2OC(F)(F)F)C(=O)Nc2ccc(OC(F)(F)F)cc21` (stereo not given) was tested, and the IC50 was 4.19 µM. In the case of `O=C(CCn1c(SCC(=O)c2ccccc2)nc2ccccc2c1=O)NCc1ccc(F)cc1`, the IC50 is reported as > 40 µM (inactive). With `COc1ccc(CCNC(=O)CSc2nc(-c3ccc(OC)c(OC)c3)ccc2C#N)cc1` the IC50 was “inactive”. `N#CC(C#N)=C1C=C2C=C(N3CCCCCC3)CCC2CC1` (stereo not given) gave an IC50 of 4.8 µM. In the case of `COc1ccc2c(c1)c(/C=C/c1cc[n+](C)cc1)cn2C`, the IC50 is reported as “inactive”. Compound `CCCCc1nc2sc3c(SCCN(C)C)ncnc3c2c2c1CCC2` has an IC50 of 7.04 µM. With `Cc1[nH]nc2nc(SCC(=O)NC3CCCCC3)n(-c3ccc(Br)cc3)c(=N)c12` the IC50 was 5.74 µM. With `COc1ccccc1C(=O)Nc1nnc(-c2ccc(F)cc2)s1` the IC50 was 3.13 µM. `O=C(CSc1ncnc2c1oc1ccccc12)Nc1ccc2c(c1)OCCO2` was tested, and the IC50 was > 40 µM (inactive). Compound `COc1ccc(C)cc1Nc1nc(-c2ccccc2O)nc2ccccc12` has an IC50 of 4.05 µM. With `Cc1cc(NC(=O)CSc2nc3cc(C)c(C)cc3cc2C)no1` the IC50 was > 40 µM (inactive). `CCCCN(C)C1=CC2=CC(=C(C#N)C#N)CCC2CC1` (stereo not given) was tested, and the IC50 was > 40 µM (inactive). `COc1ccccc1CNC(=O)COC(=O)c1cccnc1SCC(=O)NCc1ccccc1OC` was tested, and the IC50 was 5.05 µM. With `CCOC(=O)c1sc(NC(=S)NC(=O)C2CCCC2)cc1C` the IC50 was 1.8 µM. In the case of `O=[N+]([O-])c1ccc(-c2nc(-c3cccs3)c(-c3cccs3)[nH]2)cc1`, the IC50 is reported as “inactive”. For `Cc1nc(SCC(=O)Nc2ccc(F)cc2)c2oc3ccccc3c2n1`, the IC50 was “inactive”. For `O=C1c2cccc3c(O)ccc(c23)C(=O)N1Cc1ccccc1`, the IC50 was “inactive”. For `CCOC(=O)c1ccc2nc(Nc3nc4ccc(F)cc4s3)sc2c1`, the IC50 was 7.02 µM. With `COc1ccccc1-c1ccc2c(c1)C(C)(Cc1cc(Cl)ccc1C(F)(F)F)C(=O)N2` (stereo not given) the IC50 was > 40 µM (inactive). Compound `O=C(CSc1nc2ccccc2nc1N1CCCCC1)NCc1ccc(Cl)cc1Cl` has an IC50 of 7.15 µM. `Oc1ccccc1-c1nc(N2CCCC2)c2ccccc2n1` gave an IC50 of 2.1 µM. For `CCOc1ccc(N=Nc2c(=O)[nH]n3c(=O)cc(C)[nH]c23)cc1`, the IC50 was > 40 µM (inactive). With `Cc1cccc2cc(C#N)c(SCC#N)nc12` the IC50 was > 40 µM (inactive). `COc1ccc(-c2cc(C3CC3)nc(SCC(=O)c3cccs3)c2C#N)cc1` was tested, and the IC50 was 6.69 µM. `Cc1nc(SCC(=O)NCc2ccccc2)c2oc3ccccc3c2n1` gave an IC50 of 4.18 µM. With `COc1ccccc1CNc1ncnc2cc(Cl)ccc12` the IC50 was 2.42 µM. With `C=CCNC(=O)c1ccc(Cn2c(=S)[nH]c3cc4c(cc3c2=O)OCO4)cc1` the IC50 was “inactive”. In the case of `O=C(CSc1nnc2scc(-c3ccccc3)n12)Nc1nsc(-c2ccccc2)n1`, the IC50 is reported as > 40 µM (inactive). With `COc1ccc(S(=O)(=O)N2CCCCCC2)cc1C(=O)Nc1ccc(C)cn1` the IC50 was > 40 µM (inactive). With `CCOC(=O)CSc1nc2cc(OCC)ccc2cc1C#N` the IC50 was 6.06 µM. For `CC1(C)Cc2c(sc3c2c(N)nc(=S)n3Cc2ccc(Br)cc2)CO1`, the IC50 was “inactive”. Compound `COc1ccc(Oc2c(Cl)cnn(CC(=O)C(c3ccccc3)c3ccccc3)c2=O)cc1` has an IC50 of 0.779 µM. With `CN(C)c1ccc(N=Nc2ccccc2C(=O)OCC(=O)N2CCCCCC2)cc1` the IC50 was “inactive”. Compound `N#Cc1ccccc1N1CCN(C(=O)C2CCN(c3ncnc4c3sc3cccc(F)c34)CC2)CC1` has an IC50 of 4.47 µM.
